Results from patent US10988456B2, “O-aminoheteroaryl alkynyl-containing compound, preparation method therefor, and use thereof” (SHANGHAI INSTITUTE OF MATERIA MEDICA, CHINESE ACADEMY OF …, priority 2017, dated 2021).
“Also recorded” adds a separate entry of the source.

Tests used:
FGFR1 = FGFR1 (Homo sapiens, UniProt P11362); test: Inhibition of receptor tyrosine kinase activity at molecular level (ELISA, Poly(Glu,Tyr)4:1 substrate phosphorylation); format: biochemical; details: 10 nM compound; average of two independent experiments
Description: (§1) Enzyme reaction substrate Poly(Glu, Tyr)4:1 was diluted with potassium-free PBS (10 mM sodium phosphate buffer, 150 mM NaCl, pH 7.2-7.4) to 20 μg/mL. […] The reaction was conducted under 37° C. for 12-16 hours. After the liquid was removed from the wells, the plate was washed three times with 200 μL/well of T-PBS (PBS containing 0.1% Tween-20), each for 5 minutes. The enzyme plate was dried in 37° C. dryer for 1-2 hours.
(§2) 50 μL ATP solution diluted with buffer (50 mM HEPES pH 7.4, 50 mM MgCl2, 0.5 mM MnCl2, 0.2 mM Na3VO4, 1 mM DTT) to a final concentration of 5 μM was added into each well. The compound was diluted with DMSO to a suitable concentration (1 μL/well) or the well contained the corresponding concentration of DMSO (negative control well) Then various kinase recombinant proteins diluted with 49 μL of reaction buffer was added to initiate the reaction. Each experiment required duplicate enzyme-free control well. The reaction was carried out for 1 hour on a 37° C. Shaker (100 rpm). The plate was washed three times with T-PBS. A dilution of the primary antibody PY99 was added (100 μL/well), and the reaction was conducted in a shaker at 37° C. for 0.5 hr. The plate was washed three times with T-PBS. A dilution of the horseradish peroxidase-labeled goat anti-mouse IgG secondary antibody was added (100 μL/well), and the reaction was conducted in a shaker at 37° C. for 0.5 hour. Plate was washed with T-PBS for three times. 2 mg/mL OPD coloration solution (diluted with 0.1 M citric acid-sodium citrate buffer containing 0.03% H2O2 (pH=5.4)) was added (100 μL/well), reacted for 1-10 minutes at 25° C. in dark. The reaction was quenched with 2M H2SO4 (50 μL/well), and read at 490 nm using a tunable microplate reader SPECTRA MAX 190.
(§3) The inhibition ratio of the sample was determined by the following formula: […]
(§4) The IC50 values were obtained via four-parameter regression analysis using the software supplied with the microplate reader.

KDR = KDR (Homo sapiens, UniProt P35968); test: as above; format: biochemical; details: 10 nM compound; average of two independent experiments
Description: as §1, §2, §3, §4

RET = RET (Homo sapiens, UniProt P07949); test: as above; format: biochemical; details: 10 nM compound; average of two independent experiments
Description: as §1, §2, §3, §4

[1] = test system: human gastric cancer SNU-16 xenografts; test: Growth of subcutaneous xenografts of human gastric cancer SNU-16 in nude mice (comparative compounds study); details: for Weight (g, mean ± SD): SNU-16 tumor-bearing mice
Description: The tumor tissue in the vigorous growth period was cut into 1.5 mm^3, and inoculated subcutaneously in the right axilla of nude mice under aseptic conditions. The diameter of the xenograft in nude mice was measured with a vernier caliper. The animals were randomly divided into groups when the average tumor volume was grown to about 190 mm^3. […] The diameter of the xenograft was measured twice a week during the entire experiment, and the body weight of the mice was weighed. The tumor volume (TV) was calculated as: TV=½×a×b^2, where a and b represented length and width, respectively. The relative tumor volume (RTV) was calculated based on the measured results, and the formula was: RTV=Vt/V0, wherein V0 represented the tumor volume obtained when the mice was divided and administered (i.e., d0), and Vt represented the tumor volume at each measurement. The anti-tumor activity evaluation index was the relative tumor proliferation rate T/C (%), and the calculation formula was as follows: T/C (%)=(TRTV/CRTV)×100%, wherein TRTV was TRV in treatment group; and CRTV was RTV in negative control group.

KDR, sequence (P35968 20-1356): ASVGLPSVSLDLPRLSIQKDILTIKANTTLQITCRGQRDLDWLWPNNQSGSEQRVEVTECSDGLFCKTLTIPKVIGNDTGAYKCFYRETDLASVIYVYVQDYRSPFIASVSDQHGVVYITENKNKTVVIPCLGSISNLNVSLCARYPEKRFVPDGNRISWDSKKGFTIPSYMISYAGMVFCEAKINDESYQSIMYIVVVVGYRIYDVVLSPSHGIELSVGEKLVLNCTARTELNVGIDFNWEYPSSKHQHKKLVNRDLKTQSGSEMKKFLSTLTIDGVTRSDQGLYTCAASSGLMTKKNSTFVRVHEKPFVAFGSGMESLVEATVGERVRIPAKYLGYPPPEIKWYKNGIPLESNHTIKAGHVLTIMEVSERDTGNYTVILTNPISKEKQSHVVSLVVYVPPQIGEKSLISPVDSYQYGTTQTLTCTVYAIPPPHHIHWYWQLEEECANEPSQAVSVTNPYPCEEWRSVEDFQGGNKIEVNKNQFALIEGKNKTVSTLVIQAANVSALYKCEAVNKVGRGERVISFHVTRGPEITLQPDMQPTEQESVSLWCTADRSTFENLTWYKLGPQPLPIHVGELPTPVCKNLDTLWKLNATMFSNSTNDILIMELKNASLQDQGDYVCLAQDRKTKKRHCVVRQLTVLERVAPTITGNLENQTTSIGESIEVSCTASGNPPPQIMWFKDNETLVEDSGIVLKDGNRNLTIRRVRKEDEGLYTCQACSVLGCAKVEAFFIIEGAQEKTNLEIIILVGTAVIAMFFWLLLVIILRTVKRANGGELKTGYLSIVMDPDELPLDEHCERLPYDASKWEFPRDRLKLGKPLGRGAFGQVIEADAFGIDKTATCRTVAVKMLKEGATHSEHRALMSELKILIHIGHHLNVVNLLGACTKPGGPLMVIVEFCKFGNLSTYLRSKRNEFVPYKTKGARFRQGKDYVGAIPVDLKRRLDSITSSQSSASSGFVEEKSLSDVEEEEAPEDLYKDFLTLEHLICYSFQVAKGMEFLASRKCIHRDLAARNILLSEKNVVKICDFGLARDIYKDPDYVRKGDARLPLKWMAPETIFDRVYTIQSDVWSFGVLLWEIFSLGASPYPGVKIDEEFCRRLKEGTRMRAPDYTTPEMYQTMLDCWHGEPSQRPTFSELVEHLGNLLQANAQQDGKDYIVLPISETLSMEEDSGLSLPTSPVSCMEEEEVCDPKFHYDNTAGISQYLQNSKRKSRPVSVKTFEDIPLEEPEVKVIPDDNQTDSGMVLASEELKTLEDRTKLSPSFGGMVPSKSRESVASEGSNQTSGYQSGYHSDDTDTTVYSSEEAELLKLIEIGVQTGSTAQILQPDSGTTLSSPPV
FGFR1, sequence (P11362 22-822): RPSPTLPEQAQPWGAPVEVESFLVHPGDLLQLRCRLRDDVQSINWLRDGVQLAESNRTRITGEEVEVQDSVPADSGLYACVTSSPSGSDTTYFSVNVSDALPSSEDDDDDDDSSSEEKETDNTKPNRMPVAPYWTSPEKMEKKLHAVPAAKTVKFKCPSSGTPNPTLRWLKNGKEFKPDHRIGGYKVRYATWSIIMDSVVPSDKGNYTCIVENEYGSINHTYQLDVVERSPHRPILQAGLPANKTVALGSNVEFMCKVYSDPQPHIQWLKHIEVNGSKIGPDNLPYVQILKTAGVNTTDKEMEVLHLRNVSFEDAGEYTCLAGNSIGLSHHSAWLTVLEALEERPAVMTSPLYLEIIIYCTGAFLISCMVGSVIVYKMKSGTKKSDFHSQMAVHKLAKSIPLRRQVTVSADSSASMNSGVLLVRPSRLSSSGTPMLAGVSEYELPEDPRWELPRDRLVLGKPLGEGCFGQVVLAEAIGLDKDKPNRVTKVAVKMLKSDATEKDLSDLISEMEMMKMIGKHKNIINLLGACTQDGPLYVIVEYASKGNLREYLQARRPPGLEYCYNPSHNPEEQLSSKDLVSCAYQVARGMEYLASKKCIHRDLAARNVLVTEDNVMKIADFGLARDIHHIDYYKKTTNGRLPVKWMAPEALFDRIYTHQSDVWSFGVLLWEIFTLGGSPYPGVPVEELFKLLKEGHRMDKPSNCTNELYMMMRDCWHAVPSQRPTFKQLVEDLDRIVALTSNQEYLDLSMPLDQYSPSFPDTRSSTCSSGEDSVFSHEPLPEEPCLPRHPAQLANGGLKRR
RET, sequence (P07949 29-1114): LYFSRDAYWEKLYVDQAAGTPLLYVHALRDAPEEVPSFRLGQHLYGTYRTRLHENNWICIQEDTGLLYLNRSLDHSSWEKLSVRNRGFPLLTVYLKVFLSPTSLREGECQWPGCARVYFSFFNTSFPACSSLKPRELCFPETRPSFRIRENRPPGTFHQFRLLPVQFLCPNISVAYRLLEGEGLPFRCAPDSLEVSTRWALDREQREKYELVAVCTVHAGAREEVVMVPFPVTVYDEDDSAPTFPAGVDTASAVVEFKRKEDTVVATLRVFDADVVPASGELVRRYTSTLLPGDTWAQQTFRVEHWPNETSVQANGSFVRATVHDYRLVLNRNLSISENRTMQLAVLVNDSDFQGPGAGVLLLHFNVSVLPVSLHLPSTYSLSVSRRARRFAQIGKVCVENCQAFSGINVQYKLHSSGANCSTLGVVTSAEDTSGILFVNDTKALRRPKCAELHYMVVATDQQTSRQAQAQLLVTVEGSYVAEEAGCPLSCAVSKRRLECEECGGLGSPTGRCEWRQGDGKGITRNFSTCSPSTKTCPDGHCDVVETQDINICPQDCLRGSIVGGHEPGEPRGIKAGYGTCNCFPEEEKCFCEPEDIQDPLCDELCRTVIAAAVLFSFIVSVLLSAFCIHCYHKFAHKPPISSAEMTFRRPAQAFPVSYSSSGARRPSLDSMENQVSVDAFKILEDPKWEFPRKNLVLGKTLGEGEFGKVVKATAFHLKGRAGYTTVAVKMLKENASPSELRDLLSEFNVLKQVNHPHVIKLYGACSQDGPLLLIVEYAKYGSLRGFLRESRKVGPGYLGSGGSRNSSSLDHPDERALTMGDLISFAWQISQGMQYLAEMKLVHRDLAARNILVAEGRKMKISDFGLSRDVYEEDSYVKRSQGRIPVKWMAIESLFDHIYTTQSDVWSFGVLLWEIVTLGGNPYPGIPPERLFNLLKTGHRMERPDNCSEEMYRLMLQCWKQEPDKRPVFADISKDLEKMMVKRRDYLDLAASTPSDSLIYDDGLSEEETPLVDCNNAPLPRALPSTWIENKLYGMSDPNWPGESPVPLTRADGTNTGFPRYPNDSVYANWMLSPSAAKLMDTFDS

Structure (SMILES): CN1CCN(Cc2ccc(NC(=O)c3ccc(F)c(C#Cc4cccnc4N)c3)cc2C(F)(F)F)CC1 [Example 2]
- 10 nM inhibition ratio FGFR1 (FGFR1): 73.0
- 10 nM inhibition ratio KDR (KDR): 44.3
- 10 nM inhibition ratio RET (RET): 69.2

Structure (SMILES): Cc1ccc(C(=O)Nc2ccc(CN3CCN(C)CC3)c(C(F)(F)F)c2)cc1C#Cc1cccnc1N [Example 3]
- 10 nM inhibition ratio FGFR1 (FGFR1): 52.4
- 10 nM inhibition ratio KDR (KDR): 34.7
- 10 nM inhibition ratio RET (RET): 69.1

Structure (SMILES): COc1ccc(C(=O)Nc2ccc(CN3CCN(C)CC3)c(C(F)(F)F)c2)cc1C#Cc1cccnc1N [Example 4]
- 10 nM inhibition ratio FGFR1 (FGFR1): 51.1
- 10 nM inhibition ratio KDR (KDR): 4.6
- 10 nM inhibition ratio RET (RET): 52.0

Structure (SMILES): CN1CCN(Cc2ccc(NC(=O)c3ccc(C#N)c(C#Cc4cccnc4N)c3)cc2C(F)(F)F)CC1 [Example 5]
- 10 nM inhibition ratio FGFR1 (FGFR1): 45.1
- 10 nM inhibition ratio KDR (KDR): 15.2
- 10 nM inhibition ratio RET (RET): 40.1

Structure (SMILES): CN1CCN(Cc2ccc(NC(=O)c3cc(F)cc(C#Cc4cccnc4N)c3)cc2C(F)(F)F)CC1 [Example 7]
- 10 nM inhibition ratio FGFR1 (FGFR1): 80.7
- 10 nM inhibition ratio KDR (KDR): 38.9
- 10 nM inhibition ratio RET (RET): 92.4

Structure (SMILES): CN1CCN(Cc2ccc(NC(=O)c3cc(C#Cc4cccnc4N)ccc3F)cc2C(F)(F)F)CC1 [Example 8]
- 10 nM inhibition ratio FGFR1 (FGFR1): 46.0
- 10 nM inhibition ratio KDR (KDR): 30.4
- 10 nM inhibition ratio RET (RET): 53.4

Structure (SMILES): CN1CCN(Cc2ccc(NC(=O)c3cc(Cl)cc(C#Cc4cccnc4N)c3)cc2C(F)(F)F)CC1 [Example 9]
- 10 nM inhibition ratio FGFR1 (FGFR1): 60.7
- 10 nM inhibition ratio KDR (KDR): 28.9
- 10 nM inhibition ratio RET (RET): 83.4

Structure (SMILES): CN1CCN(Cc2ccc(NC(=O)c3cc(C#Cc4cccnc4N)cc(C(F)(F)F)c3)cc2C(F)(F)F)CC1 [Example 10]
- 10 nM inhibition ratio FGFR1 (FGFR1): 36
- 10 nM inhibition ratio KDR (KDR): 34.5
- 10 nM inhibition ratio RET (RET): 63.4

Structure (SMILES): CN1CCN(Cc2ccc(NC(=O)c3cc(C#N)cc(C#Cc4cccnc4N)c3)cc2C(F)(F)F)CC1 [Example 11]
- 10 nM inhibition ratio FGFR1 (FGFR1): 54.0
- 10 nM inhibition ratio KDR (KDR): 34.3
- 10 nM inhibition ratio RET (RET): 68.2

Structure (SMILES): Cc1cc(C#Cc2cccnc2N)cc(C(=O)Nc2ccc(CN3CCN(C)CC3)c(C(F)(F)F)c2)c1 [Example 12]
- 10 nM inhibition ratio FGFR1 (FGFR1): 75.1
- 10 nM inhibition ratio KDR (KDR): 24.0
- 10 nM inhibition ratio RET (RET): 73.2

Structure (SMILES): COc1cc(C#Cc2cccnc2N)cc(C(=O)Nc2ccc(CN3CCN(C)CC3)c(C(F)(F)F)c2)c1 [Example 13]
- 10 nM inhibition ratio FGFR1 (FGFR1): 70.2
- 10 nM inhibition ratio KDR (KDR): 15.1
- 10 nM inhibition ratio RET (RET): 64.3

Structure (SMILES): Cc1ccc(C#Cc2cccnc2N)cc1C(=O)Nc1ccc(CN2CCN(C)CC2)c(C(F)(F)F)c1 [Example 14]
- 10 nM inhibition ratio FGFR1 (FGFR1): 46.1
- 10 nM inhibition ratio KDR (KDR): 20.3
- 10 nM inhibition ratio RET (RET): 57.6

Structure (SMILES): COc1ccc(C#Cc2cccnc2N)cc1C(=O)Nc1ccc(CN2CCN(C)CC2)c(C(F)(F)F)c1 [Example 15]
- 10 nM inhibition ratio FGFR1 (FGFR1): 59.9
- 10 nM inhibition ratio KDR (KDR): 15.4
- 10 nM inhibition ratio RET (RET): 61.2

Structure (SMILES): CN1CCN(Cc2ccc(NC(=O)c3ccc(Cl)c(C#Cc4cc(F)cnc4N)c3)cc2C(F)(F)F)CC1 [Example 16]
- 10 nM inhibition ratio FGFR1 (FGFR1): 70.5
- 10 nM inhibition ratio KDR (KDR): 25.2
- 10 nM inhibition ratio RET (RET): 71.8

Structure (SMILES): CN1CCN(Cc2ccc(NC(=O)c3ccc(Cl)c(C#Cc4cc(Cl)cnc4N)c3)cc2C(F)(F)F)CC1 [Example 17]
- 10 nM inhibition ratio FGFR1 (FGFR1): 68.0
- 10 nM inhibition ratio KDR (KDR): 25.0
- 10 nM inhibition ratio RET (RET): 73.3

Structure (SMILES): Cc1cnc(N)c(C#Cc2cc(C(=O)Nc3ccc(CN4CCN(C)CC4)c(C(F)(F)F)c3)ccc2Cl)c1 [Example 18]
- 10 nM inhibition ratio FGFR1 (FGFR1): 65.5
- 10 nM inhibition ratio KDR (KDR): 20.3
- 10 nM inhibition ratio RET (RET): 58.2

Structure (SMILES): CN1CCN(Cc2ccc(NC(=O)c3ccc(Cl)c(C#Cc4cc(C5CC5)cnc4N)c3)cc2C(F)(F)F)CC1 [Example 19]
- 10 nM inhibition ratio FGFR1 (FGFR1): 59.3
- 10 nM inhibition ratio KDR (KDR): 13.2
- 10 nM inhibition ratio RET (RET): 69.4

Structure (SMILES): CN1CCN(Cc2ccc(NC(=O)c3ccc(Cl)c(C#Cc4cc(C(F)(F)F)cnc4N)c3)cc2C(F)(F)F)CC1 [Example 20]
- 10 nM inhibition ratio FGFR1 (FGFR1): 71.1
- 10 nM inhibition ratio KDR (KDR): 23.4
- 10 nM inhibition ratio RET (RET): 70.8

Structure (SMILES): CN1CCN(Cc2ccc(NC(=O)c3ccc(Cl)c(C#Cc4cncc(N5CCOCC5)c4)c3)cc2C(F)(F)F)CC1 [HuFGFR1-113]
- animal deaths ([1]; SNU-16, 20 mg/kg group): one mouse died on day 20
- Relative tumor volume RTV (mean ± SD) ([1]; SNU-16, 20 mg/kg orally once a day, d0): 1.00 ± 0.00
- Relative tumor volume RTV (mean ± SD) ([1]; SNU-16, 20 mg/kg orally once a day, d3): 1.12 ± 0.03
- Relative tumor volume RTV (mean ± SD) ([1]; SNU-16, 20 mg/kg orally once a day, d7): 0.64 ± 0.23
- Relative tumor volume RTV (mean ± SD) ([1]; SNU-16, 20 mg/kg orally once a day, d10): 0.54 ± 0.22
- Relative tumor volume RTV (mean ± SD) ([1]; SNU-16, 20 mg/kg orally once a day, d14): 0.92 ± 0.17
- Relative tumor volume RTV (mean ± SD) ([1]; SNU-16, 20 mg/kg orally once a day, d17): 1.18 ± 0.42
- Relative tumor volume RTV (mean ± SD) ([1]; SNU-16, 20 mg/kg orally once a day, d21): 1.35 ± 0.15
- relative tumor proliferation rate T/C ([1]; SNU-16, 20 mg/kg orally once a day, day 21): 23.30%
- animal deaths ([1]; SNU-16, 100 mg/kg group): One mouse died on the third day; also recorded: Two mice died on the fifth day
- toxicity / condition of the mice (in words) ([1]; SNU-16, 100 mg/kg group): significant toxicity
- Relative tumor volume RTV (mean ± SD) ([1]; SNU-16, 100 mg/kg orally once a day (administration interrupted), d0): 1.00 ± 0.00
- Relative tumor volume RTV (mean ± SD) ([1]; SNU-16, 100 mg/kg orally once a day (administration interrupted), d3): 1.32 ± 0.40
- Relative tumor volume RTV (mean ± SD) ([1]; SNU-16, 100 mg/kg orally once a day (administration interrupted), d7): 0.58 ± 0.02
- Relative tumor volume RTV (mean ± SD) ([1]; SNU-16, 100 mg/kg orally once a day (administration interrupted), d10): 0.60 ± 0.02
- Relative tumor volume RTV (mean ± SD) ([1]; SNU-16, 100 mg/kg orally once a day (administration interrupted), d14): 0.58 ± 0.35
- Relative tumor volume RTV (mean ± SD) ([1]; SNU-16, 100 mg/kg orally once a day (administration interrupted), d17): 1.16 ± 0.86
- Relative tumor volume RTV (mean ± SD) ([1]; SNU-16, 100 mg/kg orally once a day (administration interrupted), d21): 1.52 ± /
- weight of the tumor-bearing mice (in words) ([1]; SNU-16, HuFGFR1-113 at 20 mg/kg, HuFGFR1-117 dose not stated): decreased significantly
- Weight (g, mean ± SD) ([1]; 20 mg/kg orally once a day, d0): 23.2 ± 1.8 g
- Weight (g, mean ± SD) ([1]; 20 mg/kg orally once a day, d3): 24.0 ± 1.5 g
- Weight (g, mean ± SD) ([1]; 20 mg/kg orally once a day, d7): 22.4 ± 1.8 g
- Weight (g, mean ± SD) ([1]; 20 mg/kg orally once a day, d10): 20.2 ± 1.9 g
- Weight (g, mean ± SD) ([1]; 20 mg/kg orally once a day, d14): 19.7 ± 2.9 g
- Weight (g, mean ± SD) ([1]; 20 mg/kg orally once a day, d17): 20.1 ± 3.7 g
- Weight (g, mean ± SD) ([1]; 20 mg/kg orally once a day, d21): 20.3 ± 1.6 g
- Weight (g, mean ± SD) ([1]; 100 mg/kg orally once a day (administration interrupted), d0): 23.4 ± 2.7 g
- Weight (g, mean ± SD) ([1]; 100 mg/kg orally once a day (administration interrupted), d3): 23.1 ± 2.0 g
- Weight (g, mean ± SD) ([1]; 100 mg/kg orally once a day (administration interrupted), d7): 20.7 ± 0.1 g
- Weight (g, mean ± SD) ([1]; 100 mg/kg orally once a day (administration interrupted), d10): 22.1 ± 0.4 g
- Weight (g, mean ± SD) ([1]; 100 mg/kg orally once a day (administration interrupted), d14): 25.4 ± 1.6 g
- Weight (g, mean ± SD) ([1]; 100 mg/kg orally once a day (administration interrupted), d17): 25.5 ± 3.0 g
- Weight (g, mean ± SD) ([1]; 100 mg/kg orally once a day (administration interrupted), d21): 21.2 ± / g
